The target of the experiment is T1, PAK7 (KIAA1264) (Homo sapiens, UniProt Q9P286).
T1 construct: purchased Thermo Fisher Scientific (Life Technologies) SelectScreen
Description: SelectScreen Z'LYTE. The experiment is classed as biochemical. The method in brief:
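NU5455 was profiled across the SelectScreen Broad panel of kinase activity and binding assays. Z'LYTE reactions such as CSF1R ran at apparent Km ATP, while the Adapta CAMK1 assay used ATP listed as 10. Values are given as percent.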

T1 sequence (Q9P286 whole entry): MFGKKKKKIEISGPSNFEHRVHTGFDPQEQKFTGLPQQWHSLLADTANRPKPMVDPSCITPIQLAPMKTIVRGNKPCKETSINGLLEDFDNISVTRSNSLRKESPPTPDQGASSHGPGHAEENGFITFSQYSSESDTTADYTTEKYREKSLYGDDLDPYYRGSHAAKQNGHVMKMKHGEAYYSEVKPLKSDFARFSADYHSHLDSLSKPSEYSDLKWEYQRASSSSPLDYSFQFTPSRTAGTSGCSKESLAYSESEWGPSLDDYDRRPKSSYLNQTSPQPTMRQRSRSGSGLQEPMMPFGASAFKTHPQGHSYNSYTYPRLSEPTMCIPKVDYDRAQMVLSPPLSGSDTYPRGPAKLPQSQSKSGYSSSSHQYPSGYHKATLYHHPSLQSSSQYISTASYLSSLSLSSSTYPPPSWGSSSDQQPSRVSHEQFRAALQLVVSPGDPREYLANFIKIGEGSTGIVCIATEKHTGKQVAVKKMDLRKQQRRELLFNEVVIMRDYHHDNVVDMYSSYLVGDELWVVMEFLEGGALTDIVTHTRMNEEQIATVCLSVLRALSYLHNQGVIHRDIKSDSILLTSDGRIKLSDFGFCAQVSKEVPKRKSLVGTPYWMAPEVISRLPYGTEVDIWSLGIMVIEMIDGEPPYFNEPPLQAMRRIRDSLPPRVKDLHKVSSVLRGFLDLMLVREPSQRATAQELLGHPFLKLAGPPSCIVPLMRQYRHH

`CN(C(=O)CN1CCOCC1)c1ccc2sc3c(-c4cccc5c(=O)cc(N6CC7CCC(C6)O7)oc45)cccc3c2c1` [NU5455] came in with an inhibition at 1 µM of 5.7%.

For the origin of these results see publication PMC6934184, “Selective DNA-PKcs inhibition extends the therapeutic index of localized radiotherapy and chemotherapy” (The Journal of Clinical Investigation, 2019).
